Reference: PubChem BioAssay (NCI)
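Growth conditions: 96-well plates. Treatment: test compound, 48 hours, 5 concentrations. Analysis: linear interpolation between bracketing concentrations; unreached endpoints set to highest concentration. Abbreviation: GI50, concentration required for 50% inhibition of growth. TGI is the concentration that stops growth completely.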

tested on: HOP-62 NSCLC; assay: DTP human tumour cell line panel, 48 h

C[C@@H]1OC(O)[C@@H](F)[C@H](O)[C@@H]1O (some centres undefined) and CS(=O)(=O)c1ccc([C@H]2O[C@@H](CO)C[C@]2(O)c2ccc(S(C)(=O)=O)cc2)cc1 cannot be ordered by GI50: over 100 µM for the first, over 100 µM for the second.

First: OCC(O)CC[CH2][Sn]([Br])([c]1ccccc1)[c]1ccccc1 (centres undefined)
Second: O=C1c2cc(Cl)ccc2S(=O)(=O)c2c(NCCCNCCO)nc3ccccc3c21
The GI50 of the first is higher: over 100 µM for the first, 4.54 µM for the second.

First: CCc1ccc(/C=C\c2cc(OC)c(OC)c(OC)c2)cc1
Second: COc1cc(C2NC(=O)c3ccccc3N2)ccc1OCCCCCOc1c(OC)cc(C2=NOC(c3cc(OC)c(OC)c(OC)c3)C2)cc1OC (centres undefined)
The GI50 of the first is 590-fold lower: 0.0295 µM for the first, 17.3 µM for the second.

Going from C=CCCCCCCCCC(=O)[O][Sn]([CH2]CCC)([CH2]CCC)[CH2]CCC to CCC[CH2][Sn]([CH2]CCC)([O]C(=O)c1cccnc1SC)[O]C(=O)c1cccnc1SC, the GI50 rises from 0.172 µM to 2.43 µM (14-fold).

First: [Cl-].[Dy+3].[O-]/N=C(\c1ccccc1)c1ccccn1.[O-]/N=C(\c1ccccc1)c1ccccn1.[O-]/N=C(\c1ccccc1)c1ccccn1
Second: COc1cc([N+](=O)[O-])cc2c3c(n(C)c12)[C@@]1(C)CCC2c4ccc(OCc5ccccc5)cc4CCC2C1C3 (some centres undefined)
The GI50 of the first is 1.8-fold lower: 24.7 µM for the first, 43.7 µM for the second.

Going from Nc1nc(Cl)c2ncn(Cc3ccc(C45CC6CC(CC(C6)C4)C5)c(O)c3)c2n1 to CCC[CH2][Sn]1([CH2]CCC)[O]Cc2nc(C)ccc2[O]1, the GI50 rises from 1.85 µM to 10.1 µM (5.5-fold).

C[C@@H]1OC(O)[C@@H](F)[C@H](O)[C@@H]1O (some centres undefined) and COC12C=C(C)C(CC1)CC2C(=O)O (centres undefined) cannot be ordered by TGI: over 100 µM for the first, over 100 µM for the second.

OCC(O)CC[CH2][Sn]([Br])([c]1ccccc1)[c]1ccccc1 (centres undefined) and O=C(c1ccccc1)c1nnc(C(=O)c2ccccc2)nn1 cannot be ordered by TGI: over 100 µM for the first, over 344 µM for the second.

Compared with CCc1ccc(/C=C\c2cc(OC)c(OC)c(OC)c2)cc1, COc1cc(C2NC(=O)c3ccccc3N2)ccc1OCCCCCOc1c(OC)cc(C2=NOC(c3cc(OC)c(OC)c(OC)c3)C2)cc1OC (centres undefined) is 3.3-fold higher in TGI: 18.3 µM for the first, 61.3 µM for the second.

O=c1c2cc([N+](=O)[O-])ccc2sc2ccsc12 and N#Cc1cc([N+](=O)[O-])ccc1NC(=O)C(=O)Nc1n[nH]c(N)n1 cannot be ordered by TGI: over 100 µM for the first, over 100 µM for the second.

First: C=CCCCCCCCCC(=O)[O][Sn]([CH2]CCC)([CH2]CCC)[CH2]CCC
Second: CCC[CH2][Sn]([CH2]CCC)([O]C(=O)c1cccnc1SC)[O]C(=O)c1cccnc1SC
The TGI of the first is 12-fold lower: 0.346 µM for the first, 4.22 µM for the second.

COc1ccc(C2=CC3CCC2C3)cc1 (centres undefined) and COc1cc([N+](=O)[O-])cc2c3c(n(C)c12)[C@@]1(C)CCC2c4ccc(OCc5ccccc5)cc4CCC2C1C3 (some centres undefined) cannot be ordered by TGI: over 100 µM for the first, over 100 µM for the second.

[Cl-].[Dy+3].[O-]/N=C(\c1ccccc1)c1ccccn1.[O-]/N=C(\c1ccccc1)c1ccccn1.[O-]/N=C(\c1ccccc1)c1ccccn1 and NC(=O)C(=O)N/N=C(\CC1(O)C(=O)Nc2ccccc21)c1ccc2ccccc2c1 (centres undefined) cannot be ordered by TGI: over 100 µM for the first, over 100 µM for the second.

CC(C)(CC(=O)Nc1ccccc1)C(=O)O and CC1=NN(C(=O)Nc2ccccc2)C(=O)C2CCC(=O)N12 (centres undefined) cannot be ordered by TGI: over 100 µM for the first, over 100 µM for the second.

Cc1cc2c(cc1C)[n+](=O)c(C(=O)C/C(=N/NC(=O)CC#N)C(=O)Nc1ccccc1C(F)(F)F)c(C)n2[O-] and COC(=O)/C(=N/NC(=O)C[N+](C)(C)C)C(C(=O)OC)C(=O)C(=O)Nc1ccc(F)cc1 (centres undefined) cannot be ordered by TGI: over 100 µM for the first, over 100 µM for the second.

Compared with Brc1cccc(C=NC23CC4CC(CC(C4)C2)C3)c1, Nc1nc(Cl)c2ncn(Cc3ccc(C45CC6CC(CC(C6)C4)C5)c(O)c3)c2n1 is lower in TGI: over 100 µM for the first, 3.77 µM for the second.

Compared with CCC(C)c1c(Cl)nc(Cl)nc1Cl (centres undefined), C/C(CC(=O)Nc1cc(Cl)c(Cl)cc1Cl)=N\NC(N)=O is higher in TGI: 16 µM for the first, over 100 µM for the second.

O=C1O[C@@H](c2ccc3c(c2)OCO3)C2C(=O)O[C@@H](c3ccc4c(c3)OCO4)C12 (some centres undefined) and O=C(/C=C/c1c(O)ccc2ccccc12)c1cccc(O)c1 cannot be ordered by TGI: over 100 µM for the first, over 100 µM for the second.

O=C1CCC(=O)N2CCCCN12 and O=C1CCC2(c3ccc(F)cc3)Nc3cc(Cl)ccc3N12 (centres undefined) cannot be ordered by TGI: over 100 µM for the first, over 100 µM for the second.

CC(C)C(=O)NC(=S)Nc1ccc([N+](=O)[O-])cc1C#N and C/C(CC(=O)Nc1ccc(C)cc1C)=N/N=C(N)N cannot be ordered by TGI: over 100 µM for the first, over 100 µM for the second.

CS(=O)(=O)c1ccc([C@H]2O[C@@H](CO)C[C@]2(O)c2ccc(S(C)(=O)=O)cc2)cc1 and O=C(O)CNS(=O)(=O)c1ccc(NCc2ccccc2)cc1 cannot be ordered by TGI: over 100 µM for the first, over 100 µM for the second.

Compared with O=C1c2cc(Cl)ccc2S(=O)(=O)c2c(NCCCNCCO)nc3ccccc3c21, O=c1/c(=C/c2ccco2)sc2nc3ccccc3n12 is higher in TGI: 16.7 µM for the first, over 100 µM for the second.

Going from CC(C)(C)C1C=C(Sc2ccccc2)C(=O)O1 (centres undefined) to CCC[CH2][Sn]1([CH2]CCC)[O]Cc2nc(C)ccc2[O]1, the TGI falls from over 100 µM to 22.5 µM.

Cc1ccc2c(c1)[n+]([O-])c(N)n[n+]2[O-] gave a TGI of over 100 µM.

tested on: HOP-92 NSCLC; assay: DTP human tumour cell line panel, 48 h

C[C@@H]1OC(O)[C@@H](F)[C@H](O)[C@@H]1O (some centres undefined) and OCC(O)CC[CH2][Sn]([Br])([c]1ccccc1)[c]1ccccc1 (centres undefined) cannot be ordered by GI50: over 100 µM for the first, over 100 µM for the second.

CCc1ccc(/C=C\c2cc(OC)c(OC)c(OC)c2)cc1 was tested, and the GI50 was 0.0222 µM.

C[C@@H]1OC(O)[C@@H](F)[C@H](O)[C@@H]1O (some centres undefined) and COC12C=C(C)C(CC1)CC2C(=O)O (centres undefined) cannot be ordered by TGI: over 100 µM for the first, over 100 µM for the second.

OCC(O)CC[CH2][Sn]([Br])([c]1ccccc1)[c]1ccccc1 (centres undefined) gave a TGI of over 100 µM.

CCc1ccc(/C=C\c2cc(OC)c(OC)c(OC)c2)cc1 gave a TGI of 0.233 µM.
